Laboratory results taken from ChEMBL document CHEMBL1201862, “PubChem BioAssay data set” (2004).
Activity calls are given as the source filed them.

Tests used:
[1] = Counterscreen for activators of the function of SWI/SNF related, matrix associated, actin dependent regulator of chromatin, subfamily a, member 2 (SMARCA2, BRM): Luminescence-based cell-based high throughput dose response assay to identify non-selective compounds using the VP16 reporter assay.; assay type: functional
[2] = molecular target: T1, Polyadenylate-binding protein 1 (Homo sapiens, UniProt P11940); assay: PABP1 MLLE–PAM2 interaction inhibitors, dose response, miRNA deadenylation inhibitor project, biochemical, fluorescence polarization, Cy5-PAM2 peptide, secondary (AID 602260); assay type: functional; conditions: read-out: IC50_Mean
X-box-binding protein 1 = molecular target: T2, X-box-binding protein 1 (Homo sapiens, UniProt P17861); assay type: functional, Cricetulus griseus;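 further: confirmatory dose-response counter-screen serving a CHOP assay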
T2 sequence (P17861 whole entry): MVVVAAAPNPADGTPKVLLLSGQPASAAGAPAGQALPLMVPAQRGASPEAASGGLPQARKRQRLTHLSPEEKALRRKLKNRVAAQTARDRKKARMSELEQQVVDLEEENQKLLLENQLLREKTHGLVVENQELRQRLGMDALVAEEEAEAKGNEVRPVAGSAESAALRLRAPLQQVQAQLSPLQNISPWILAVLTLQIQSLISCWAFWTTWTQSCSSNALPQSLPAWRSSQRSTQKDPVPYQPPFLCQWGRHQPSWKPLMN

[3] = molecular target: SWI/SNF-related matrix-associated actin-dependent regulator of chromatin subfamily A member 2 (Homo sapiens, UniProt P51531); assay: Luminescence-based cell-based high throughput dose response assay to identify activators of the function of SWI/SNF related, matrix associated, actin dependent regulator of chromatin, subfamily a, member 2 (SMARCA2, BRM).; assay type: functional
[4] = molecular target: T1, Polyadenylate-binding protein 1; assay: PABP1 MLLE–PAM2 binding inhibitor potency, dose response, biochemical, fluorescence polarization, FITC-PAM2 peptide (AID 602259); assay type: functional; conditions: read-out: IC50_Mean
Nonstructural protein 1 = Nonstructural protein 1 (Influenza A virus, UniProt Q194T2); assay type: functional, Influenza A virus (A/California/07/2009(H1N1))
[5] = molecular target: T3, Histone-lysine N-methyltransferase NSD2 (Homo sapiens, UniProt O96028); assay type: biochemical
T3 sequence (O96028 whole entry): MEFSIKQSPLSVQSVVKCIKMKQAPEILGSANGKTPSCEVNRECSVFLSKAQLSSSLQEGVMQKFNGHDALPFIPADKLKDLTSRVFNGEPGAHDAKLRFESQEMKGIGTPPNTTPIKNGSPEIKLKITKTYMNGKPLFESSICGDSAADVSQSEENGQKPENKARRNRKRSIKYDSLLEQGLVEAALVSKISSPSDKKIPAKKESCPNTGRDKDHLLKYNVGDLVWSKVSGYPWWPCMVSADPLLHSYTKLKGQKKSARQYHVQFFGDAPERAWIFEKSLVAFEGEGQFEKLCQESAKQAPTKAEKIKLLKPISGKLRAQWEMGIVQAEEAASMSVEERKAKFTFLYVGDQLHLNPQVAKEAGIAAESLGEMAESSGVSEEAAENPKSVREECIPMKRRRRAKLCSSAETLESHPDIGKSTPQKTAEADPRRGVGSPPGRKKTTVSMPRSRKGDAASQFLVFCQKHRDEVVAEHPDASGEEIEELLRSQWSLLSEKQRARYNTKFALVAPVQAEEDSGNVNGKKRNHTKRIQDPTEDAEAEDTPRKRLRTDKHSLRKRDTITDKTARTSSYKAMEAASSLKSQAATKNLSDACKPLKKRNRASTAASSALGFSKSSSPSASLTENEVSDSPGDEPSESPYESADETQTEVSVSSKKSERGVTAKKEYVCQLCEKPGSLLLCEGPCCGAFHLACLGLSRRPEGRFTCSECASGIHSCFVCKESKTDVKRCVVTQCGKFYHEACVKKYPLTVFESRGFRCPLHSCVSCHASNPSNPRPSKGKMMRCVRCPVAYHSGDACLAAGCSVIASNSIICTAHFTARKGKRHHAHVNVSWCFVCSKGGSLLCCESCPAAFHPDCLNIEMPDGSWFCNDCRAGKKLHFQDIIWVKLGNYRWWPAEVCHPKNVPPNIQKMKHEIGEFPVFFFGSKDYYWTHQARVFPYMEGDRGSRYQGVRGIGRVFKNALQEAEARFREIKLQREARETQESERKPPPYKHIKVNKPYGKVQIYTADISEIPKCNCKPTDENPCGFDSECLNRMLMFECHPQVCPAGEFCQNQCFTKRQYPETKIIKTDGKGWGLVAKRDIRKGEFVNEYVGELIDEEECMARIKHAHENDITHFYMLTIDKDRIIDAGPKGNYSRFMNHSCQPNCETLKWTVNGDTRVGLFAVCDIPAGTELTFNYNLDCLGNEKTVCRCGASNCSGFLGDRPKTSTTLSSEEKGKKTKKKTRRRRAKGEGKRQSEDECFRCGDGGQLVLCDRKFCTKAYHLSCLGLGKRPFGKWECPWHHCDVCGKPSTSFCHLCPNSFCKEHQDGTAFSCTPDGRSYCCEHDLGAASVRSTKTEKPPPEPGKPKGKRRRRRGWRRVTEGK

[6] = molecular target: T4, Rac GTPase-activating protein 1 (Homo sapiens, UniProt Q9H0H5); assay: MgcRacGAP GTPase-activating activity inhibitors, confirmation, biochemical, ADP Hunter fluorescence, primary and confirmatory (AID 624330); assay type: functional
T4 sequence (Q9H0H5 whole entry): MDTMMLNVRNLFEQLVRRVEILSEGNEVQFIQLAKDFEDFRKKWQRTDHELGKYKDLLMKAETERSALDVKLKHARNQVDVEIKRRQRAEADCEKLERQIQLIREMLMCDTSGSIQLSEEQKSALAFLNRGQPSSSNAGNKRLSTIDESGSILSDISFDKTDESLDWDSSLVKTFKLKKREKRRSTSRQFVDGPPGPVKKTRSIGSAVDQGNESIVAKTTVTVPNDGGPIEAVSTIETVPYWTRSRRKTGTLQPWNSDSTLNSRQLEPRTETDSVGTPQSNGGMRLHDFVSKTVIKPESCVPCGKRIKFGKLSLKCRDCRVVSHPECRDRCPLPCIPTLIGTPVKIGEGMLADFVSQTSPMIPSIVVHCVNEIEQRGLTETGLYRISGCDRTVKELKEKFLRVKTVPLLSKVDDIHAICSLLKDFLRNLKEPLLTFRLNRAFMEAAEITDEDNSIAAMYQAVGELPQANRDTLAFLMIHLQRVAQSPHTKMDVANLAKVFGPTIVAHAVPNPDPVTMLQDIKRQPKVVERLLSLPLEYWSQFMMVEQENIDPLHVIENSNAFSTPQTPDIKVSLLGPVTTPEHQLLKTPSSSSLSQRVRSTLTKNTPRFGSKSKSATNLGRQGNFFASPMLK

Caspase-6 = molecular target: T5, Caspase-6 (Homo sapiens, UniProt P55212); assay: human caspase-6 inhibitors, dose response, biochemical, VEID-R110 fluorescence, cherry-pick (AID 720632)
T5 sequence (P55212 whole entry): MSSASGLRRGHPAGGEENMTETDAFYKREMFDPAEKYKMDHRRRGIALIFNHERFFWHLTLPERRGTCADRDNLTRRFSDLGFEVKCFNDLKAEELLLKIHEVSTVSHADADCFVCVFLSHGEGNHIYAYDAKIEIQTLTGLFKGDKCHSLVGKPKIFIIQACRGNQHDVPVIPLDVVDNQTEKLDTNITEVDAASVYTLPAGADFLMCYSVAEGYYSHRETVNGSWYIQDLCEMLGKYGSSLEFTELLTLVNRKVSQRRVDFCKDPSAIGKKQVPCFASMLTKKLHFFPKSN

[7] = molecular target: Matrix metalloproteinase-14 (Homo sapiens, UniProt P50281); assay: Dose Response confirmation of uHTS hits for a small molecule inhibitors of MT1-MMP activation in a fluorescence assay set 2.; assay type: functional
[8] = HeLa cell cytotoxicity, dose response, cytotoxicity control for MgcRacGAP inhibitor project (AID 624300); assay type: functional
ORF 73 = molecular target: T6, ORF 73 (Human herpesvirus 8, UniProt O40947); assay: inhibitors of C-LANA binding to LBS DNA, dose response, biochemical, fluorescence polarization, cherry-picked samples (AID 504725); parameters: species or system Human gammaherpesvirus 8;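 further: fluorescence polarization of a labeled DNA duplex reporting LANA DNA binding; potency is for inhibitors that block LANA binding to the DNA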
T6 sequence (O40947 whole entry): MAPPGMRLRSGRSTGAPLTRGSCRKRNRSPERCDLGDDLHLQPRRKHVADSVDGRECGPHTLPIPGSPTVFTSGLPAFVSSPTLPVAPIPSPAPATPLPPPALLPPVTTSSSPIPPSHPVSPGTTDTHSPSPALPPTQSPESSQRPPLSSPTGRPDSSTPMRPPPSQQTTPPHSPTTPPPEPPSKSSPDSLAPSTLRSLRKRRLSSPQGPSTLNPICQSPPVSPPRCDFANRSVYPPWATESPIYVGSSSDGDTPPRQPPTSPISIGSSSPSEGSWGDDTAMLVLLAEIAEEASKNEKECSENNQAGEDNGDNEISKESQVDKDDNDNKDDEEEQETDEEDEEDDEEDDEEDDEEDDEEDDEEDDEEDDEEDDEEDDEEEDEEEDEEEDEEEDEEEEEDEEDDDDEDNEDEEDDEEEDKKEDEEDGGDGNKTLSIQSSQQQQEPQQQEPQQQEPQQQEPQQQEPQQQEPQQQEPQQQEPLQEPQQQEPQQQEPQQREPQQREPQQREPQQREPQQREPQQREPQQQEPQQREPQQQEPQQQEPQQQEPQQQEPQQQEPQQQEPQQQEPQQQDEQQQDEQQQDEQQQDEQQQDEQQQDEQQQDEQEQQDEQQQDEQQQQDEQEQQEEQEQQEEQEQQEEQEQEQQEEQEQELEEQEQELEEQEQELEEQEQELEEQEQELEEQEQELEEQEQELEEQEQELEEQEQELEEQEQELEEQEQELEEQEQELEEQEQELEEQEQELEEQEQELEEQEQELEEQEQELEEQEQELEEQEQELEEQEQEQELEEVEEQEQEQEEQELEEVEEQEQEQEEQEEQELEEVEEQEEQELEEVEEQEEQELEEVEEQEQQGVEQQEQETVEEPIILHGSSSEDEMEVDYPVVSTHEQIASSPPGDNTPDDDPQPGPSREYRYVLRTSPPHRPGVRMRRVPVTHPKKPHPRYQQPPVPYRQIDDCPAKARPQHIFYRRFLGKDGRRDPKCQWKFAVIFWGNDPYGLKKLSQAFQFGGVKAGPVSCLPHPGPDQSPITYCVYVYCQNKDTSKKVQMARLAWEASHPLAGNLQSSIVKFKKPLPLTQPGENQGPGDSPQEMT

HeLa = assay: HeLa cell cytotoxicity, dose response, cytotoxicity control, 24 h, cherry-picked samples (AID 504726); assay type: functional, cell-based; conditions: Homo sapiens;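 further: potency for cytotoxicity as loss of luminescence signal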
[9] = HEK293T cell cytotoxicity, dose response, cytotoxicity control, CellTiter-Glo luminescence, cherry-picked samples, set 4 (AID 743441); assay type: functional, cell-based; conditions: HEK293
[10] = Mycobacterium tuberculosis BioA enzyme inhibitor Measured in Biochemical System Using Plate Reader - 2163-02_Inhibitor_Dose_DryPowder_Activity.

T1 sequence (P11940 whole entry): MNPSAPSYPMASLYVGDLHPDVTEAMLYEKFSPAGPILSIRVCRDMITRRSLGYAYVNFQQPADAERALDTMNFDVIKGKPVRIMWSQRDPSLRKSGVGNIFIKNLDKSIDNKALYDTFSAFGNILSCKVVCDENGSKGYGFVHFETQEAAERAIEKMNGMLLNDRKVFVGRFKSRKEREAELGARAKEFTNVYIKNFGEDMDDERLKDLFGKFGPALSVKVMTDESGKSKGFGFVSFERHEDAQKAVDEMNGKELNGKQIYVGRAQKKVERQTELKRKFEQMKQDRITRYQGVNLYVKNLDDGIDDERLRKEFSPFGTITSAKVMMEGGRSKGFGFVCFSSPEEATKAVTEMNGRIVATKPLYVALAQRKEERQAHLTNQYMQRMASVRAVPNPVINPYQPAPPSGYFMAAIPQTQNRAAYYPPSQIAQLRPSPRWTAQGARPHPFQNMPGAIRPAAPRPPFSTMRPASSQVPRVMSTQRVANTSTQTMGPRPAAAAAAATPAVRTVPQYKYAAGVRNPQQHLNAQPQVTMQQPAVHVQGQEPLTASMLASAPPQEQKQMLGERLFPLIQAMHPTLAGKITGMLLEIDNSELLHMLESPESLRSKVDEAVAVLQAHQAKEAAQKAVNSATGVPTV
Nonstructural protein 1, sequence (Q194T2 whole entry): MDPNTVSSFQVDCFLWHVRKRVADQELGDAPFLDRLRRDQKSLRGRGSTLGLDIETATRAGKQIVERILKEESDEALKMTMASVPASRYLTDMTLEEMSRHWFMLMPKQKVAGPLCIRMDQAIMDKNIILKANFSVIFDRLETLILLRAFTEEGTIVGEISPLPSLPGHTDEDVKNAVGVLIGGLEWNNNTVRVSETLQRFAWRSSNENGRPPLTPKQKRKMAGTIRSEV
SWI/SNF-related matrix-associated actin-dependent regulator of chromatin subfamily A member 2, sequence (P51531 whole entry): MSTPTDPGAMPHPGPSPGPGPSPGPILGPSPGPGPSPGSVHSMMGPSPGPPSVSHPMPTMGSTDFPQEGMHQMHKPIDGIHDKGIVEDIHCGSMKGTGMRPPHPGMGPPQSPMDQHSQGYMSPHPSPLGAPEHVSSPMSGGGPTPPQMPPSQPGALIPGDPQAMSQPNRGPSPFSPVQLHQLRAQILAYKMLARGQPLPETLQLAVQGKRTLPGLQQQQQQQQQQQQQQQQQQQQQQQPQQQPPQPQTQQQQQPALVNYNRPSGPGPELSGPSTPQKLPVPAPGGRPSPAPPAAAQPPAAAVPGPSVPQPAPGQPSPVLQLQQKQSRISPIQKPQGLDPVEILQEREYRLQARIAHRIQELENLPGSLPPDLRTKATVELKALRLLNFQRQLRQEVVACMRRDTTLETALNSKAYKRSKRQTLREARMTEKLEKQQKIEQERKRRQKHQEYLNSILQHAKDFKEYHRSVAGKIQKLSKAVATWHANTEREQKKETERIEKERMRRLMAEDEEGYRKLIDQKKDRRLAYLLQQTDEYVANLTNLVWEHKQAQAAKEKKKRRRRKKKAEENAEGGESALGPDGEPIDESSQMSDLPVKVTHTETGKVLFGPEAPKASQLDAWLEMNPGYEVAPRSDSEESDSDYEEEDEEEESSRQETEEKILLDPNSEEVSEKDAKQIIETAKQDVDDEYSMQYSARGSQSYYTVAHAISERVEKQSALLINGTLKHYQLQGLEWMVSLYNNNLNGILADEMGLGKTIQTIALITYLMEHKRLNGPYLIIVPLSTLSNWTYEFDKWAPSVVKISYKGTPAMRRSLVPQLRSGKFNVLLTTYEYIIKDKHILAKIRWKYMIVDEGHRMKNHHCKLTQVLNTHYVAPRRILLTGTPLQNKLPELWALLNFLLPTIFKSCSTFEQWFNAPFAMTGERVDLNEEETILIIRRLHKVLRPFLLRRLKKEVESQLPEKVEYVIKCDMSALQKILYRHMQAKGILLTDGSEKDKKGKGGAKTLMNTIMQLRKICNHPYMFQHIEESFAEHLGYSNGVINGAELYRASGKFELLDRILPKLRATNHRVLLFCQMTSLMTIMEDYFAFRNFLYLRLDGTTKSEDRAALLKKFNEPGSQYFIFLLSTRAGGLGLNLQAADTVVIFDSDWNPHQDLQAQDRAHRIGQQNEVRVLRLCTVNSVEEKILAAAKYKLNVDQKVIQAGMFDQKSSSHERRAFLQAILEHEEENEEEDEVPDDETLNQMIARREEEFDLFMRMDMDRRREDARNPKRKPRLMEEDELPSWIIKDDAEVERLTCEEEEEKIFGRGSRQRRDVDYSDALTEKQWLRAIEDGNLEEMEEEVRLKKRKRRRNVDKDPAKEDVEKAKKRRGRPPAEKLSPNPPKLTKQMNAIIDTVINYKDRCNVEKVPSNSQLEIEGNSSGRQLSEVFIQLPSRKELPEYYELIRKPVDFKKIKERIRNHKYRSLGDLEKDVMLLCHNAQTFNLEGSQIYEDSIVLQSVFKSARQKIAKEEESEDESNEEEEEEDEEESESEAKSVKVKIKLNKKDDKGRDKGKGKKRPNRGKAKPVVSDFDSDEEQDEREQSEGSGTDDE

## COc1ccc2c3c(cccc13)C(=O)N(O)C2=O
[1]
  EC50: > 91.2 µM (inactive)
[2]
  IC50: > 66 µM (inactive)
X-box-binding protein 1
  Absolute IC50 (XBP1): 10 µM
[3]
  EC50: 26.4 µM (inactive)
[4]
  IC50: 35.2 µM (inactive)

## O=S(=O)(O)c1cc(O)c(N=Nc2ccc(O)cc2O)c2ccccc12
Nonstructural protein 1
  IC50: 4.32 µM (active)
[5]
  AC50: 7.35 µM (active)
[6]
  IC50: 28.8 µM (active)
Caspase-6
  AC50: 2.16 µM (active)
[7]
  IC50: 20.5 µM (inactive)
[8]
  CC50: 100 µM (active)
ORF 73
  AC50: 22.2 µM (active)
HeLa
  AC50: 32.4 µM (active)

## CCOc1ccccc1NC(=O)c1ccc2ccccc2c1
[9]
  AC50: > 52 µM (inactive)

## Cc1ccc(/C=C(\CC(=O)O)c2nc3ccccc3s2)cc1[N+](=O)[O-]
[10]
  AC50: 14.3 µM (active)
